Results reported in a compilation of properties of binary mixtures (doi:10.1039/c7qm00510e).

Assay: xn = mol fraction of the nth substance listed
Conditions: 101 kPa

CCCCCCCCCCOS(=O)(=O)[O-].CC[n+]1ccn(C)c1 + O
electrical conductivity [S/m]
Conditions | 303.15 K | 313.15 K | 323.15 K | 333.15 K | 343.15 K | 353.15 K | 363.15 K | 372.95 K
x1 = 0.075 | 2.53 | 3.16 | 3.83 | 4.55 | 5.29 | 6.06 | – | –
x1 = 0.317 | – | – | – | – | 1.34 | 1.63 | 1.96 | 2.23
